# Source: US8765961B2, “Near infrared fluorescent imaging agent” (FUJIFILM Corporation, priority 2009, dated 2014)
# Target: T1, albumin (Bos taurus, UniProt P02769)
# T1 construct: The test substance was dissolved to 5 μg/mL in calf serum; from tissue; host or cells: calf serum
# Assay: Serum protein binding rate test by ultracentrifugation, albumin fraction
# Format: in vitro ADME
# Details: 5 μg/mL in calf serum, 37° C., density gradient centrifugation, HPLC
# Protocol: The test substance was dissolved to 5 μg/mL in calf serum, vibrated for 20 minutes at 37° C., and subjected to density gradient centrifugation (1,000,000×g, 24 h) using NaBr. Following the centrifugation, the dye concentrations in the albumin fraction, lipoprotein fraction, and the remaining fractions were quantified by HPLC.
# T1 sequence (P02769 25-607): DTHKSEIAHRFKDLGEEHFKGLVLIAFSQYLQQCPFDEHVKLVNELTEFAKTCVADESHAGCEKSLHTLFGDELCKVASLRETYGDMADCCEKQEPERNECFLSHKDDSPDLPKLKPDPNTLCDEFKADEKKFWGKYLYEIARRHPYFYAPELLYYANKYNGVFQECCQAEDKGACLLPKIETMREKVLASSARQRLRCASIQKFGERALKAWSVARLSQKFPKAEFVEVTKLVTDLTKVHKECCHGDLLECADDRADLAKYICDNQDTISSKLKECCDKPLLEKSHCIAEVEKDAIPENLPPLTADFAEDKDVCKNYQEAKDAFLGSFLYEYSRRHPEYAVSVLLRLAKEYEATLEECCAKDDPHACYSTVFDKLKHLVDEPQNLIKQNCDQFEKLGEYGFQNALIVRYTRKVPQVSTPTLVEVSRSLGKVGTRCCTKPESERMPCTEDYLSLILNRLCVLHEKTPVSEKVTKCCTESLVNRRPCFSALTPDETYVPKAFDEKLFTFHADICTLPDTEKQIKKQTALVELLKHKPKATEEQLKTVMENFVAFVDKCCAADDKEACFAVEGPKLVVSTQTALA
compound,measurement,value
"CC1(C)C(/C=C/C=C/C=C/C=C2\N(CCCCS(=O)(=O)O)c3ccc4ccccc4c3C2(C)C)=[N+](CCCCS(=O)(=O)[O-])c2ccc3ccccc3c21 [ICG, indocyanine green]",Protein binding rate (%) Albumin,18%
